In ChEMBL document CHEMBL5500376, “Novel pyxinol amide derivatives bearing an aliphatic heterocycle as P-glycoprotein modulators for overcoming multidrug resistance” (Eur J Med Chem, 2024) one finds viability, Activity and Ratio data, which are given here for 27 compounds.

The nature of test [1]: Cytotoxicity against human KBV cells assessed as cell survival at 10 uM measured after 72 hrs incubation by MTT assay relative to control. It counts as functional. The note with it: read-out: Activity.
Test [2] is described as follows: Reversal of multi-drug resistance in human KVB cells assessed as increase in PTX-induced cytotoxicity by measuring cell survival at 5 uM measured after 72 hrs incubation in presence of 100 nM paclitaxel by MTT assay relative to control. It counts as functional, KBV. In general terms: Tetrazolium assays rely on reduction of a dye to a coloured formazan, in cell work by metabolically active cells.

Test [3] in a line: Reversal of multi-drug resistance in human KVB cells assessed as increase in PTX-induced cytotoxicity by measuring cell survival at 10 uM measured after 72 hrs incubation in presence of 100 nM paclitaxel by MTT assay relative to control. Type of test: functional, KBV.
A short description of test [4]: Reversal fold, ratio of PTX IC50 to PTX IC50 in presence of test compound for reversal of multi-drug resistance in human KVB cells at 10 uM measured after 72 hrs by MTT assay. Type of test: functional, KBV.

The structures appear in SMILES notation. “And” between values parts separate entries of the source, which are not always exact repeats. Equal entries are not always repeated.

For the compound `CC(C)(O)[C@H]1CC[C@@](C)([C@H]2CC[C@]3(C)[C@@H]2[C@H](O)C[C@@H]2[C@@]4(C)CC[C@H](NC(=O)[C@@H]5C[C@@H](F)CN5)C(C)(C)[C@@H]4CC[C@]23C)O1`, the viability at 10 µM in test [1] was 99%. In addition, the Activity in test [2] was 78%; in test [3] it was 66%.

As to `CC(C)(O)[C@H]1CC[C@@](C)([C@H]2CC[C@]3(C)[C@@H]2[C@H](O)C[C@@H]2[C@@]4(C)CC[C@H](NC(=O)[C@H]5CCCCN5)C(C)(C)[C@@H]4CC[C@]23C)O1`, the viability at 10 µM in test [1] stood at 99%. Besides, the Activity in test [2] is given as 56%; in test [3], 28%. The Ratio in test [4] (72 h, 10 µM) was 89.1 and 106.3.

Consider `CC(C)(O)[C@H]1CC[C@@](C)([C@H]2CC[C@]3(C)[C@@H]2[C@H](O)C[C@@H]2[C@@]4(C)CC[C@H](NC(=O)CC5CNC5)C(C)(C)[C@@H]4CC[C@]23C)O1`, for which the viability at 10 µM in test [1] was determined as 96%. For the same compound, the values for the Activity in test [2] and in test [3] were 95% and 90%, respectively.

Turning to `C[S+](C)[O-]` [DIMETHYL SULFOXIDE], in test [1], the viability at 10 µM worked out at 100%. Moreover, the Activity in test [2] and in test [3] was 100% throughout.

For the compound `CC(C)(O)[C@H]1CC[C@@](C)([C@H]2CC[C@]3(C)[C@@H]2[C@H](O)C[C@@H]2[C@@]4(C)CC[C@H](NC(=O)[C@H]5C[C@@H](O)CN5)C(C)(C)[C@@H]4CC[C@]23C)O1`, the viability at 10 µM in test [1] turned out to be 98%. Besides, the Activity in test [2] was 95%; in test [3] it was 98%.

With `CC(C)(C)OC(=O)N1C[C@H](F)C[C@H]1C(=O)N[C@H]1CC[C@]2(C)[C@H]3C[C@@H](O)[C@@H]4[C@@H]([C@]5(C)CC[C@H](C(C)(C)O)O5)CC[C@@]4(C)[C@]3(C)CC[C@H]2C1(C)C`, in test [1], the viability at 10 µM is 114%. Moreover, the Activity was 46% in test [2] and 26% in test [3]. In addition, the Ratio in test [4] came to 102.4.

For the compound `CC(C)(C)OC(=O)N1CCC[C@H](C(=O)N[C@H]2CC[C@]3(C)[C@H]4C[C@@H](O)[C@@H]5[C@@H]([C@]6(C)CC[C@H](C(C)(C)O)O6)CC[C@@]5(C)[C@]4(C)CC[C@H]3C2(C)C)C1`, the viability at 10 µM in test [1] stood at 93%. Further, the values for the Activity in test [2] and in test [3] were 76% and 47%, respectively.

For the compound `CC(C)(C)OC(=O)N1C[C@H](O)C[C@H]1C(=O)N[C@H]1CC[C@]2(C)[C@H]3C[C@@H](O)[C@@H]4[C@@H]([C@]5(C)CC[C@H](C(C)(C)O)O5)CC[C@@]4(C)[C@]3(C)CC[C@H]2C1(C)C`, the viability at 10 µM in test [1] was 105%. Moreover, the results for the Activity in test [2] and in test [3] were 90% and 93%, respectively.

As for `CC(C)(O)[C@H]1CC[C@@](C)([C@H]2CC[C@]3(C)[C@@H]2[C@H](O)C[C@@H]2[C@@]4(C)CC[C@H](NC(=O)[C@H]5CCCNC5)C(C)(C)[C@@H]4CC[C@]23C)O1`, the viability at 10 µM in test [1] is 94%. Further, the Activity came to 83% in test [2] and 45% in test [3].

For the compound `CC(C)(C)OC(=O)N1CC(F)(F)C[C@H]1C(=O)N[C@H]1CC[C@]2(C)[C@H]3C[C@@H](O)[C@@H]4[C@@H]([C@]5(C)CC[C@H](C(C)(C)O)O5)CC[C@@]4(C)[C@]3(C)CC[C@H]2C1(C)C`, the viability at 10 µM in test [1] is 100%. The results for the Activity in test [2] and in test [3] were 65% and 64%, respectively.

For the compound `CC(C)(O)[C@H]1CC[C@@](C)([C@H]2CC[C@]3(C)[C@@H]2[C@H](O)C[C@@H]2[C@@]4(C)CC[C@H](NC(=O)[C@@H]5COCCN5)C(C)(C)[C@@H]4CC[C@]23C)O1`, in test [1], the viability at 10 µM stood at 89%. The figures for the Activity in test [2] and in test [3] were 82% and 57%, respectively.

On to `CC(C)(O)[C@H]1CC[C@@](C)([C@H]2CC[C@]3(C)[C@@H]2[C@H](O)C[C@@H]2[C@@]4(C)CC[C@H](NC(=O)[C@H]5CCN5)C(C)(C)[C@@H]4CC[C@]23C)O1`, for which the viability at 10 µM in test [1] came to 70%. Also, the Activity in test [2] was found to be 86%; in test [3], 68%.

Regarding `CC(C)(O)[C@H]1CC[C@@](C)([C@H]2CC[C@]3(C)[C@@H]2[C@H](O)C[C@@H]2[C@@]4(C)CC[C@H](NC(=O)[C@@H]5CCC(=O)N5)C(C)(C)[C@@H]4CC[C@]23C)O1`, the viability at 10 µM in test [1] was determined as 100%. Moreover, the Activity in test [2] worked out at 93%; in test [3], 87%.

With `CC1(C(=O)N[C@H]2CC[C@]3(C)[C@H]4C[C@@H](O)[C@@H]5[C@@H]([C@]6(C)CC[C@H](C(C)(C)O)O6)CC[C@@]5(C)[C@]4(C)CC[C@H]3C2(C)C)COC1`, the viability at 10 µM in test [1] was determined as 84%. Besides, the Activity in test [2] is listed as 59%; in test [3], 50%.

As for `CC(C)(O)[C@H]1CC[C@@](C)([C@H]2CC[C@]3(C)[C@@H]2[C@H](O)C[C@@H]2[C@@]4(C)CC[C@H](NC(=O)[C@@H]5CC(F)(F)CN5)C(C)(C)[C@@H]4CC[C@]23C)O1`, the viability at 10 µM in test [1] is 95%. Further, the Activity was 78% in test [2] and 62% in test [3].

Consider `CC(C)(O)[C@H]1CC[C@@](C)([C@H]2CC[C@]3(C)[C@@H]2[C@H](O)C[C@@H]2[C@@]4(C)CC[C@H](NC(=O)[C@@H]5CCNC5)C(C)(C)[C@@H]4CC[C@]23C)O1`, for which the viability at 10 µM in test [1] is 99%. Further, the Activity in test [2] is 67%; in test [3], 49%.

Turning to `CC(C)(C)OC(=O)N1CCCC[C@@H]1C(=O)N[C@H]1CC[C@]2(C)[C@H]3C[C@@H](O)[C@@H]4[C@@H]([C@]5(C)CC[C@H](C(C)(C)O)O5)CC[C@@]4(C)[C@]3(C)CC[C@H]2C1(C)C`, the viability at 10 µM in test [1] is 118%. Besides, the values for the Activity in test [2] and in test [3] were 42% and 27%, respectively.

Take `CC(C)(O)[C@H]1CC[C@@](C)([C@H]2CC[C@]3(C)[C@@H]2[C@H](O)C[C@@H]2[C@@]4(C)CC[C@H](NC(=O)[C@H]5CCC(=O)N5)C(C)(C)[C@@H]4CC[C@]23C)O1`: in test [1], the viability at 10 µM was 92%. In addition, the Activity in test [2] was 93%; in test [3] it was 87%.

With `CC(C)(C)OC(=O)N1CCCC[C@H]1C(=O)N[C@H]1CC[C@]2(C)[C@H]3C[C@@H](O)[C@@H]4[C@@H]([C@]5(C)CC[C@H](C(C)(C)O)O5)CC[C@@]4(C)[C@]3(C)CC[C@H]2C1(C)C`, the viability at 10 µM in test [1] amounted to 102%. In addition, the Activity in test [2] was determined as 61%; in test [3], 26%. Moreover, the Ratio in test [4] is listed as 66.

Consider `CC(C)(O)[C@H]1CC[C@@](C)([C@H]2CC[C@]3(C)[C@@H]2[C@H](O)C[C@@H]2[C@@]4(C)CC[C@H](NC(=O)[C@@H]5CCC(=O)O5)C(C)(C)[C@@H]4CC[C@]23C)O1`, for which the viability at 10 µM in test [1] worked out at 104%. For the same compound, the values for the Activity in test [2] and in test [3] were 95% and 94%, respectively.

Take `CC(C)(C)OC(=O)N1CCOC[C@H]1C(=O)N[C@H]1CC[C@]2(C)[C@H]3C[C@@H](O)[C@@H]4[C@@H]([C@]5(C)CC[C@H](C(C)(C)O)O5)CC[C@@]4(C)[C@]3(C)CC[C@H]2C1(C)C`: the viability at 10 µM in test [1] amounted to 89%. Further, the Activity in test [2] came out at 81%; in test [3] it was 55%.

On to `CC(C)(O)[C@H]1CC[C@@](C)([C@H]2CC[C@]3(C)[C@@H]2[C@H](O)C[C@@H]2[C@@]4(C)CC[C@H](NC(=O)C5CNC5)C(C)(C)[C@@H]4CC[C@]23C)O1`, for which the viability at 10 µM in test [1] came out at 97%. Besides, the Activity in test [2] amounted to 76%; in test [3] it was 61%.

For `CC(C)(C)OC(=O)N1CC[C@@H](C(=O)N[C@H]2CC[C@]3(C)[C@H]4C[C@@H](O)[C@@H]5[C@@H]([C@]6(C)CC[C@H](C(C)(C)O)O6)CC[C@@]5(C)[C@]4(C)CC[C@H]3C2(C)C)C1`, the viability at 10 µM in test [1] was determined as 81%. The values for the Activity in test [2] and in test [3] were 54% and 31%, respectively. For the same compound, in test [4], the Ratio is 76.

As for `CC(C)(C)OC(=O)N1CC(C(=O)N[C@H]2CC[C@]3(C)[C@H]4C[C@@H](O)[C@@H]5[C@@H]([C@]6(C)CC[C@H](C(C)(C)O)O6)CC[C@@]5(C)[C@]4(C)CC[C@H]3C2(C)C)C1`, in test [1], the viability at 10 µM stood at 91%. Also, the Activity in test [2] is reported as 80%; in test [3], 54%.

As for `CC(=O)N1CCC[C@H]1C(=O)N[C@H]1CC[C@]2(C)[C@H]3C[C@@H](O)[C@@H]4[C@@H]([C@]5(C)CC[C@H](C(C)(C)O)O5)CC[C@@]4(C)[C@]3(C)CC[C@H]2C1(C)C`, the viability at 10 µM in test [1] came out at 97%. The Activity in test [2] was determined as 80%; in test [3] it was 63%.

Take `CC(C)(O)[C@H]1CC[C@@](C)([C@H]2CC[C@]3(C)[C@@H]2[C@H](O)C[C@@H]2[C@@]4(C)CC[C@H](NC(=O)[C@H]5CCCN5)C(C)(C)[C@@H]4CC[C@]23C)O1`: in test [1], the viability at 10 µM is 109%. Further, the Activity is 73% in test [2] and 63% in test [3].

Turning to `CC(C)(C)OC(=O)N1CC[C@@H]1C(=O)N[C@H]1CC[C@]2(C)[C@H]3C[C@@H](O)[C@@H]4[C@@H]([C@]5(C)CC[C@H](C(C)(C)O)O5)CC[C@@]4(C)[C@]3(C)CC[C@H]2C1(C)C`, the viability at 10 µM in test [1] is 99%. The Activity in test [2] was 47%; in test [3], 27%. Further, the Ratio in test [4] is given as 100.1.
